Experimental data as given in patent EP0567613B1, “COMPOSITIONS FOR THERAPY AND PREVENTION OF CANCER” (The Government of the United States of America, as …, priority 1991, dated 1993).

Legend:
Kaposi's Sarcoma KS = assay: Tumor cell growth / proliferation; assay type: cell-based; conditions: read-out: % Inhibition by NaPA 0.8 mg/ml
lung adenocarcinoma H596 = assay: Tumor cell growth / proliferation; assay type: cell-based; conditions: Homo sapiens, NCI-H596; read-out: concentration causing about 50% inhibition of growth
Astrocytoma U373 = assay: Tumor cell growth / proliferation; assay type: cell-based; conditions: Homo sapiens
HLA-A = assay: Northern blot analysis of HLA-A mRNA in HL-60; assay type: cell-based, human; conditions: HL-60, NaPA 0.8 and 1.6 mg/ml
Procedure: (§1) Cytoplasmic RNA (20 µg/lane) was subjected to Northern blot analysis using ^32P-labeled specific DNA probes. Ethidium bromide-stained […] indicates the relative amounts of total RNA in each lane. Figure A. Induction of a P2 expression in 10T1/2 cells. […] Figure B. Kinetics of myc inhibition and HLA-A induction in HL-60. […] Figure C. Dose-dependent and specificity of effect.
In HL-60, cell transformation has been linked to myc amplification and overexpression, and differentiation would typically require down regulation of myc expression. [Collins, S.J. The HL-60 promyelocytic leukemia cell line: Proliferation, differentiation, and cellular oncogene expression. Blood. 70:1233-1244 (1987)]. […] The 32P-labeled probes used were myc 3rd exon (Oncor) and HLA-A3 Hind III/EcoRI fragment. […] This occurred within 4 hours of treatment, preceding the phenotypic changes detectable by 48 hrs, approximately two cell cycles, after treatment. Similar kinetics of myc inhibition have been reported for other differentiation agents such as dimethyl sulfoxide, sodium butyrate, bromodeoxyuridine, retinoids, and 1,25-dihydroxyvitamin D3. […] It is believed that this may enhance the immunogenicity of tumors in vivo.

10T1/2 = assay: Cell proliferation (cell number); assay type: cell-based, mouse; conditions: treated for four days
Procedure: (§2) The adherent cells were detached with trypsin/EDTA and the cell number determined using a hemocytometer. Data points indicate the mean ± S.D. of duplicates from two independent experiments. The cell lines were obtained from the American Type Culture Collection and maintained in RPMI 1640 (HL-60) or Dulbecco's Modified Eagle's Medium (10T1/2) supplemented with 10% heat inactivated fetal calf serum (Gibco Laboratories), 2 mM L-Glutamine, and antibiotics.

[1] = tested on: the malignant or the normal cells; assay: Cytotoxicity in tissue culture; assay type: cell-based; conditions: growth-inhibitory concentrations
Text: (§3) A differential effect was seen also in ras-transformed fibrosarcoma V7T, when compared to the parental non-tumorigenic N1H3T3 cells.
(§4) The concentration range found to selectively suppress malignant growth can be readily obtained in the clinical setting without causing significant side effects.

[2] = Cytotoxicity in tissue culture; assay type: cell-based; conditions: tissue culture; read-out: concentration at which cytotoxicity was observed
Text: as §3, §4

C3H 10T1/2 Cells = assay: Tumorigenicity of treated cells in athymic mice; conditions: NaPA 1.6 mg/ml continuous, time 13 weeks
Procedure: Premalignant cells (3-4 x 10^5) were plated in 75 cm^2 dishes and 5-AzadC 0.1 µM was added to the growth medium at 20 and 48 hrs after plating. The cells were then subcultured in the absence of the nucleoside analog for an additional seven weeks. […] For the tumorigenicity assay, 4-5 week-old female athymic nude mice were inoculated s.c. with 1 x 10^6 cells and observed for tumor growth at the site of injection.

HL-60 [3] = assay: Granulocyte differentiation (NBT reduction, morphology) and viability by trypan blue exclusion
Procedure: The number of NBT positive cells was determined after 4 [solid bars] or 7 days [hatched bar] of treatment. […] Glutamine Starvation (Gln, < 0.06 mM) was as described (18).
The ability of cells to reduce nitroblue tetrazolium (NBT) is indicative of oxidase activity which is characteristic of the more mature forms of human bone marrow granulocytes. NBT reduction thus serves as an indicator of granulocyte differentiation. […] Glutamine starvation (Gln, < 0.06 mM) was as described. […] DON, ACV and HPA are glutamine antagonists.

HL-60 [4] = assay: Cell proliferation (cell number); assay type: cell-based, human
Procedure: as §2

[5] = tested on: Erythroleukemia K562 cells; assay: Induction of hemoglobin synthesis (benzidine staining, protein quantitation); conditions: for Benzidine Positive Cells: seven days
[6] = tested on: primary human skin FS4 fibroblasts; assay: Growth of normal cells; assay type: cell-based; conditions: Fibroblast, read-out: concentration needed to cause a significant inhibition of growth
[7] = tested on: NIH 3T3 cells carrying activated EJras oncogene; assay: Prevention of neoplastic transformation, oncogene transfer (ras-transformed foci); assay type: cell-based; conditions: treatment initiated 24-48 hr after oncogene transfer, scored 14-21 days later
Text: Left: Untreated control cells at about 3 weeks after DNA transfer. Middle: control of cells with as oncogenes, showing the rate of spontaneous transformation. Right: Oncogene-transfected cells, […] with NaPA.
The effect was reversible upon cessation of treatment. In treated humans, however, the fate of the premalignant cells may be substantially different due to involvement of humoral and cellular immunity (see below).

[8] = tested on: adipocyte-specific aP2 gene; assay: Northern blot analysis of aP2 expression; assay type: cell-based, mouse; conditions: treated confluent 10T1/2 cultures
Procedure: as §1
In an attempt to explore the possible mechanism of action, Northern blot analysis of HL-60 and 10T1/2 cells was performed according to conventional methods. […] The aP2 cDNA probe was labeled with [^32P]dCTP (NEN) using a commercially available random primed DNA labeling kit. Ethidium bromide-stained 28S rRNA indicates the relative amounts of total RNA in each lane.
Expression of the adipocyte-specific aP2 gene was induced within 24 hrs in treated 10T1/2 confluent cultures reaching maximal mRNA levels by 72 hrs.

10T1/2 cells = assay: Neoplastic foci formation in culture; conditions: 800-1600 µg/ml for seven weeks
Text: […] The cells were then subcultured in the absence of the nucleoside analog for an additional seven weeks. […] For the tumorigenicity assay, 4-5 week-old female athymic nude mice were inoculated s.c. with 1 x 10^6 cells and observed for tumor growth at the site of injection.

Malignant Melanoma A375 = assay: Tumor cell growth / proliferation
Astrocytoma U87 = assay: Tumor cell growth / proliferation; assay type: cell-based
[9] = after seven days of NaPA treatment, or four days when combined with RA

Q: Which inhibition at 800 µg/mL (Kaposi's Sarcoma KS) does the source give for `O=C([O-])Cc1ccccc1.[Na+]` [NaPA, sodium phenylacetate] here?
A: ≤ 40%

Q: What about the IC50 (lung adenocarcinoma H596) of the same compound?
A: 400 to 800 µg/mL

Q: And the IC50 (Astrocytoma U373; U373 MG, read-out: concentration causing about 50% inhibition of growth)?
A: 400 to 800 µg/mL

Q: What about the inhibition at 800 µg/mL (Astrocytoma U373; read-out: % Inhibition by NaPA 0.8 mg/ml, U373, 0.8 mg/ml) of the same compound?
A: ≥ 50%

Q: What about the “HLA-A mRNA” value (HLA-A) of the same compound?
A: time- and dose-dependent accumulation of HLA-A mRNA

Q: And the cell proliferation (10T1/2)?
A: dose dependent inhibition of cell proliferation

Q: And the “toxicity of the treatment to cells” value [1]?
A: not toxic to either the malignant or the normal cells

Q: And the MCC [2]?
A: > 3000 µg/mL

Q: What about the “Tumors Diameter” value (C3H 10T1/2 Cells) of the same compound?
A: 0 mm ± S.D.

Q: And the “Tumors Incidence” value (C3H 10T1/2 Cells; 1 x 10^6 cells s.c.)?
A: 0/8

Q: What about the “granulocyte differentiation (NBT positive cells)” value (HL-60 [3]; NaPA 0.8 and 1.6 mg/ml, 4 or 7 days) of the same compound?
A: capable of inducing granulocyte differentiation in HL-60

Q: What about the “banded and segmented neutrophils capable of NBT” value (HL-60 [3]; [9]) of the same compound?
A: 30-40%

Q: What about the “early stage myelocytes and metamyelocytes” value (HL-60 [3]; [9]) of the same compound?
A: 30-50%

Q: And the inhibition at 800 µg/mL (HL-60 [4]; Homo sapiens, read-out: % Inhibition by NaPA 0.8 mg/ml, HL-60, 0.8 mg/ml)?
A: ≤ 40%

Q: And the cell proliferation (HL-60 [4]; treated for four days)?
A: dose dependent inhibition of cell proliferation

Q: And the “hemoglobin accumulation, increase over control cells” value ([5]; 0.8 and 1.6 mg/ml)?
A: 4-9 fold

Q: What about the “Benzidine Positive Cells” value ([5]; NaPA 0.8 mg/ml) of the same compound?
A: 6.0%

Q: And the “Benzidine Positive Cells” value ([5]; NaPA 1.6 mg/ml)?
A: 17.1%

Q: What about the minimal effective concentration [6] of the same compound?
A: 2000 to 4000 µg/mL

Q: And the “formation of ras-transformed foci” value [7]?
A: dose-dependent reduction in the formation of ras-transformed foci

Q: What about the “time to induction of aP2 gene expression” value [8] of the same compound?
A: ≤ 24 h

Q: And the “time to maximal aP2 mRNA levels” value [8]?
A: ≤ 72 h

Q: What about the “neoplastic foci in vitro and tumors in recipient mice” value (10T1/2 cells) of the same compound?
A: forming neither neoplastic foci in vitro nor tumors in recipient mice

Q: And the “concentration causing about 50% inhibition of growth” value (Malignant Melanoma A375; A375)?
A: 0.4 to 0.8 mg/mL

Q: And the “% Inhibition by NaPA 0.8 mg/ml” value (Malignant Melanoma A375; A375, 0.8 mg/ml, within one week of treatment)?
A: ≥ 70%

Q: And the Growth (Malignant Melanoma A375; NaPA 400 µg/ml)?
A: 63.3 % of control

Q: And the Viability (Malignant Melanoma A375; NaPA 400 µg/ml)?
A: > 95%

Q: What about the IC50 (Astrocytoma U87; Homo sapiens, U-87 MG, read-out: concentration causing about 50% inhibition of growth) of the same compound?
A: 400 to 800 µg/mL

Q: What about the inhibition at 800 µg/mL (Astrocytoma U87; read-out: % Inhibition by NaPA 0.8 mg/ml, 0.8 mg/ml) of the same compound?
A: ≥ 50%
